Experimental data published in US20240174624A1, “CHIRAL N-(1,3,4-OXADIAZOLE-2-YL)PHENYL CARBOXYLIC ACID AMIDES AND THEIR USE AS HERBICIDES” (Bayer Aktiengesellschaft, priority 2021, published 2024).

Experiments:
VIOTR [1] = assay: Post-emergence herbicidal action; format: in vivo, Viola tricolor; settings: assessed after about 3 weeks
Procedure: (§1) Seeds of monocotyledonous and dicotyledonous weed and crop plants are laid out in sandy loam soil in wood-fibre pots, covered with soil and cultivated in a greenhouse under good growth conditions. 2 to 3 weeks after sowing, the test plants are treated at the one-leaf stage. The compounds of the invention, formulated in the form of wettable powders (WP) or as emulsion concentrates (EC), are then sprayed onto the green parts of the plants in the form of an aqueous suspension or emulsion at a water application rate equating to 600 to 800 l/ha, with addition of 0.2% wetting agent. After the test plants have been left to stand in the greenhouse under optimal growth conditions for about 3 weeks, the action of the preparations is assessed visually in comparison to untreated controls (herbicidal action in percent (%): 100% activity=the plants have died, 0% activity=like control plants). […] The tables below illustrate, in an illustrative manner, the post-emergence herbicidal action of the compounds of the invention, the herbicidal activity being stated in percent. In the experiments that follow, the herbicidal action of the compounds of the invention and that of the corresponding known racemic compounds closest from WO2012126932 and WO2018202535 were compared under the above-specified conditions by the pre-emergence and post-emergence method. The example numbers given in the tables relate to the compounds disclosed in the respective documents.

SETVI [2] = assay: Post-emergence herbicidal action; format: in vivo, Setaria viridis; settings: assessed after about 3 weeks
Summary of the method: (§2)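 Greenhouse pot test on sandy loam; plants treated at one-leaf stage, 2–3 weeks after sowing, by spraying WP or EC formulations as aqueous suspension/emulsion at 600–800 l/ha water with 0.2% wetting agent. Visual damage scored about 3 weeks later versus untreated controls (100% = dead, 0% = like control).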

POLCO [3] = assay: Pre-emergence herbicidal action; format: in vivo, Polygonum convolvulus; settings: 80 g/ha, scored after 3 weeks
Summary of the method: (§3)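 Greenhouse pre-emergence pot test in sandy loam; aqueous WP/EC spray at 600 to 800 l/ha with 0.2% wetting agent applied after sowing. Values are visual % damage at 3 weeks, where 0% equals control plants and 100% means plants died.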

VIOTR [4] = assay: Pre-emergence herbicidal action; format: in vivo, Viola tricolor; settings: scored after 3 weeks
Summary of the method: (§4)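 Weed and crop seeds were sown in sandy loam, and WP or EC formulations were sprayed onto the covering soil at 600 to 800 l/ha water with 0.2% wetting agent. After 3 weeks in a greenhouse, damage was scored visually against untreated controls as percent activity (100% = plants dead).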

AMARE [5] = assay: Pre-emergence herbicidal action; format: in vivo, Amaranthus retroflexus; settings: scored after 3 weeks
Summary of the method: as §4

VERPE = assay: Post-emergence herbicidal action; format: in vivo, Veronica persica; settings: 20 g/ha, assessed after about 3 weeks
Summary of the method: as §2

AVEFA [6] = assay: Post-emergence herbicidal action; format: in vivo, Avena fatua; settings: 20 g/ha, assessed after about 3 weeks
Procedure: as §1, with “percent.” for “percent. In the experiments that follow, the herbicidal action of the compounds of the invention and that of the corresponding known racemic compounds closest from WO2012126932 and WO2018202535 were compared under the above-specified conditions by the pre-emergence and post-emergence method. The example numbers given in the tables relate to the compounds disclosed in the respective documents.”

POLCO [7] = assay: Post-emergence herbicidal action; format: in vivo, Polygonum convolvulus; settings: 20 g/ha, assessed after about 3 weeks
Procedure: as §1, with “percent.” for “percent. In the experiments that follow, the herbicidal action of the compounds of the invention and that of the corresponding known racemic compounds closest from WO2012126932 and WO2018202535 were compared under the above-specified conditions by the pre-emergence and post-emergence method. The example numbers given in the tables relate to the compounds disclosed in the respective documents.”

ORYZA [8] = assay: Post-emergence damage to crop plants; format: in vivo, Oryza sativa; settings: 80 g a.i./ha, comparative experiment
Procedure: as §1

AMARE [9] = assay: Post-emergence herbicidal action; format: in vivo, Amaranthus retroflexus; settings: assessed after about 3 weeks
Summary of the method: (§5)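 Greenhouse plants in sandy loam treated at the one-leaf stage, 2–3 weeks after sowing, by spraying WP or EC formulations as aqueous suspension/emulsion at 600–800 l/ha with 0.2% wetting agent. Visual assessment after about 3 weeks versus untreated controls, as percent action (100% = plants dead, 0% = like control).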

ECHCG [10] = assay: Pre-emergence herbicidal action; format: in vivo, Echinochloa crus-galli; settings: scored after 3 weeks
Summary of the method: as §4

ORYZA [11] = assay: Pre-emergence damage to crop plants; format: in vivo, Oryza sativa; settings: 80 g a.i./ha, comparative experiment
Source text: (§6) Seeds of monocotyledonous and dicotyledonous weed plants and crop plants are laid out in sandy loam soil in wood-fibre pots and covered with soil. The compounds of the invention, formulated in the form of wettable powders (WP) or as emulsion concentrates (EC), are then applied to the surface of the covering soil in the form of an aqueous suspension or emulsion at a water application rate equivalent to 600 to 800 l/ha, with addition of 0.2% wetting agent. After the treatment, the pots are placed in a greenhouse and kept under good growth conditions for the trial plants. The damage to the test plants is scored visually after a test period of 3 weeks by comparison with untreated controls (herbicidal activity in percent (%): 100% activity=the plants have died, 0% activity=like control plants). […] The tables below illustrate, in an illustrative manner, the post-emergence herbicidal action of the compounds of the invention, the herbicidal activity being stated in percent. In the experiments that follow, the herbicidal action of the compounds of the invention and that of the corresponding known racemic compounds closest from WO2012126932 and WO2018202535 were compared under the above-specified conditions by the pre-emergence and post-emergence method. The example numbers given in the tables relate to the compounds disclosed in the respective documents.

ZEAMX [12] = assay: Post-emergence damage to crop plants; format: in vivo, Zea mays; settings: 80 g a.i./ha, comparative experiment
Procedure: as §1

TRZAS [13] = assay: Pre-emergence damage to crop plants; format: in vivo, Triticum aestiva; settings: 80 g a.i./ha, comparative experiment
Source text: as §6

ZEAMX [14] = assay: Pre-emergence damage to crop plants; format: in vivo, Zea mays; settings: 320 g a.i./ha, comparative experiment
Summary of the method: as §3

PHBPU [15] = assay: Post-emergence herbicidal action; format: in vivo, Pharbitis purpurea; settings: assessed after about 3 weeks
Procedure: as §1, with “percent.” for “percent. In the experiments that follow, the herbicidal action of the compounds of the invention and that of the corresponding known racemic compounds closest from WO2012126932 and WO2018202535 were compared under the above-specified conditions by the pre-emergence and post-emergence method. The example numbers given in the tables relate to the compounds disclosed in the respective documents.”

AVEFA [16] = assay: Pre-emergence herbicidal action; format: in vivo, Avena fatua; settings: 80 g/ha, scored after 3 weeks
Summary of the method: as §3

ECHCG [17] = assay: Post-emergence herbicidal action; format: in vivo, Echinochloa crus-galli; settings: assessed after about 3 weeks
Summary of the method: as §2

MATIN [18] = assay: Pre-emergence herbicidal action; format: in vivo, Matricaria inodora; settings: scored after 3 weeks
Summary of the method: as §3

PHBPU [19] = assay: Pre-emergence herbicidal action; format: in vivo, Pharbitis purpurea; settings: 80 g/ha, scored after 3 weeks
Source text: as §6, with “percent.” for “percent. In the experiments that follow, the herbicidal action of the compounds of the invention and that of the corresponding known racemic compounds closest from WO2012126932 and WO2018202535 were compared under the above-specified conditions by the pre-emergence and post-emergence method. The example numbers given in the tables relate to the compounds disclosed in the respective documents.”

TRZAS [20] = assay: Post-emergence damage to crop plants; format: in vivo, Triticum aestiva; settings: 80 g a.i./ha, comparative experiment
Summary of the method: as §2

MATIN [21] = assay: Post-emergence herbicidal action; format: in vivo, Matricaria inodora; settings: assessed after about 3 weeks
Summary of the method: as §5

SETVI [22] = assay: Pre-emergence herbicidal action; format: in vivo, Setaria viridis; settings: scored after 3 weeks
Summary of the method: as §3

ALOMY = assay: Pre-emergence herbicidal action; format: in vivo, Alopecurus myosuroides; settings: 80 g/ha, scored after 3 weeks
Summary of the method: as §3

With `C[S+]([O-])c1c(C(F)(F)F)ccc(C(=O)Nc2nnco2)c1Cl` (stereo in doubt) [Example I-1, 2-chloro-N-(1,3,4-oxadiazol-2-yl)-3-[(S)-methylsulfinyl]-4-(trifluoromethyl)benzamide] the “Post-emergence action against VIOTR” value (VIOTR [1]; 1.25 g/ha) was 90%, the “Post-emergence action against VIOTR” value (VIOTR [1]; 5 g/ha) was 100% and the “Post-emergence action against VIOTR” value (VIOTR [1]; 20 g/ha) was 100%. For the same compound, the “Post-emergence action against SETVI” value (SETVI [2]; 5 g/ha) was 80%, the “Post-emergence action against SETVI” value (SETVI [2]; 20 g/ha) was 100% and the “Pre-emergence action against POLCO” value (POLCO [3]) was 80%. The “Pre-emergence action against VIOTR” value (VIOTR [4]; 20 g/ha) was 100%, the “Pre-emergence action against VIOTR” value (VIOTR [4]; 80 g/ha) was 100% and the “Pre-emergence action against AMARE” value (AMARE [5]; 20 g/ha) was 100%. The “Pre-emergence action against AMARE” value (AMARE [5]; 80 g/ha) was 100%, the “Post-emergence action against VERPE” value (VERPE) was 90% and the “Post-emergence action against AVEFA” value (AVEFA [6]) was 80%. For the same compound, the “Post-emergence action against POLCO” value (POLCO [7]) was 80%, the “Damage to ORYZA” value (ORYZA [8]) was 70% and the “Post-emergence action against AMARE” value (AMARE [9]; 1.25 g/ha) was 100%. For the same compound, the “Post-emergence action against AMARE” value (AMARE [9]; 5 g/ha) was 100%, the “Post-emergence action against AMARE” value (AMARE [9]; 20 g/ha) was 100% and the “Pre-emergence action against ECHCG” value (ECHCG [10]; 5 g/ha) was 90%. For the same compound, the “Pre-emergence action against ECHCG” value (ECHCG [10]; 20 g/ha) was 100%, the “Pre-emergence action against ECHCG” value (ECHCG [10]; 80 g/ha) was 100% and the “Damage to ORYZA” value (ORYZA [11]) was 80%. For the same compound, the “Damage to ZEAMX” value (ZEAMX [12]) was 0%, the “Damage to TRZAS” value (TRZAS [13]) was 30% and the “Damage to ZEAMX” value (ZEAMX [14]) was 0%. For the same compound, the “Post-emergence action against PHBPU” value (PHBPU [15]; 5 g/ha) was 100%, the “Post-emergence action against PHBPU” value (PHBPU [15]; 20 g/ha) was 100% and the “Pre-emergence action against AVEFA” value (AVEFA [16]) was 80%. For the same compound, the “Post-emergence action against ECHCG” value (ECHCG [17]; 5 g/ha) was 100%, the “Post-emergence action against ECHCG” value (ECHCG [17]; 20 g/ha) was 100% and the “Pre-emergence action against MATIN” value (MATIN [18]; 20 g/ha) was 100%. For the same compound, the “Pre-emergence action against MATIN” value (MATIN [18]; 80 g/ha) was 100%, the “Pre-emergence action against PHBPU” value (PHBPU [19]) was 100% and the “Damage to TRZAS” value (TRZAS [20]) was 60%. The “Post-emergence action against MATIN” value (MATIN [21]; 5 g/ha) was 80%, the “Post-emergence action against MATIN” value (MATIN [21]; 20 g/ha) was 90% and the “Pre-emergence action against SETVI” value (SETVI [22]; 20 g/ha) was 80%. For the same compound, the “Pre-emergence action against SETVI” value (SETVI [22]; 80 g/ha) was 100% and the “Pre-emergence action against ALOMY” value (ALOMY) was 80%.
